Test results taken from EP4061322B1 (Institut des Sciences et Industries du Vivant et de …, priority 2019, dated 2021).
Like-named read-outs stand apart in the source and are kept apart here.

Legend:
[1] = Photostability under UV exposure; type: physicochemical; settings: for A (t=0 min): absorbance before UV exposure
Source text: La stabilité des composés 1 à 7 aux UV a été étudiée par soumission à une exposition (λ : 300 nm, P : 8.32 W/m^2) pendant une heure.
L'Avobenzone a été utilisée comme molécule de référence. Cette molécule est connue pour être […] sous exposition UV, ce qui n'est pas du tout le cas d'autres composés bio-sourcés.
La photostabilité des composés 8 à 11 a également été étudiée, de manière identique au test appliqué aux composés 1 à 7. Les résultats obtenus sont présentés dans le Tableau 2. […] Cette méthodologie a été appliquée à l'ensemble des molécules décrites ci-dessus. Tableau 2 : Stabilité des composés 8 à 11 soumis à une exposition aux UV.

[2] = target: T1, ERα (récepteur œstrogène alpha) (Homo sapiens, UniProt P03372); experiment: Endocrine system: receptor activity in presence of compound (agonist effect); type: cell-based; settings: Figure 6, C = 10 µM; even at the highest concentrations
T1 sequence (P03372 1-595): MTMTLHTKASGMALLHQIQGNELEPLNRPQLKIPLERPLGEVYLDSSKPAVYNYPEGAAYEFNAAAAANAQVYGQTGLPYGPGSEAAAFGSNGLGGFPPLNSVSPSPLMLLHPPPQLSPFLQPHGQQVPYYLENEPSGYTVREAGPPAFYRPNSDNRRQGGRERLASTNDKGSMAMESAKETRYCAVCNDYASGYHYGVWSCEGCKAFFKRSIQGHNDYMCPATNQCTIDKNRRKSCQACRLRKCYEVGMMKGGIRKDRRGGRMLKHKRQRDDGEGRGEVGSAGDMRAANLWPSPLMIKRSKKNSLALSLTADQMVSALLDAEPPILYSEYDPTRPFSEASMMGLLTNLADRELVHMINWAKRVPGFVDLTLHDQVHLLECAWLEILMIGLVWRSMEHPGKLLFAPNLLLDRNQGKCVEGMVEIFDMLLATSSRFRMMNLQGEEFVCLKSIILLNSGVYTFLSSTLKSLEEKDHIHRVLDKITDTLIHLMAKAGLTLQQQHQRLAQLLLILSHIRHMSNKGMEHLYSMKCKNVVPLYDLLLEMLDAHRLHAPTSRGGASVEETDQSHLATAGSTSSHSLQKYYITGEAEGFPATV
Source text: (§1) L'effet des composés 1 et 4 sur le système endocrinien a été évalué pour leurs propriétés agonistes et antagonistes sur différents récepteurs : ERα (récepteur œstrogène alpha), AR (récepteur des androgènes) et PXR (pregnane X receptor). Un premier test consiste à étudier l'activité des récepteurs en présence du composé 1 ou 4 (effet agoniste). […] Un second test vise à l'étude de l'activité des récepteurs en présence du composé 1 ou 4 et d'une molécule de référence pour chaque récepteur (effet antagoniste).

[3] = target: T2, AR (récepteur des androgènes) (Homo sapiens, UniProt P10275); experiment: as above; type: cell-based; settings: Figure 6, C = 10 µM; even at the highest concentrations
T2 sequence (P10275 1-920): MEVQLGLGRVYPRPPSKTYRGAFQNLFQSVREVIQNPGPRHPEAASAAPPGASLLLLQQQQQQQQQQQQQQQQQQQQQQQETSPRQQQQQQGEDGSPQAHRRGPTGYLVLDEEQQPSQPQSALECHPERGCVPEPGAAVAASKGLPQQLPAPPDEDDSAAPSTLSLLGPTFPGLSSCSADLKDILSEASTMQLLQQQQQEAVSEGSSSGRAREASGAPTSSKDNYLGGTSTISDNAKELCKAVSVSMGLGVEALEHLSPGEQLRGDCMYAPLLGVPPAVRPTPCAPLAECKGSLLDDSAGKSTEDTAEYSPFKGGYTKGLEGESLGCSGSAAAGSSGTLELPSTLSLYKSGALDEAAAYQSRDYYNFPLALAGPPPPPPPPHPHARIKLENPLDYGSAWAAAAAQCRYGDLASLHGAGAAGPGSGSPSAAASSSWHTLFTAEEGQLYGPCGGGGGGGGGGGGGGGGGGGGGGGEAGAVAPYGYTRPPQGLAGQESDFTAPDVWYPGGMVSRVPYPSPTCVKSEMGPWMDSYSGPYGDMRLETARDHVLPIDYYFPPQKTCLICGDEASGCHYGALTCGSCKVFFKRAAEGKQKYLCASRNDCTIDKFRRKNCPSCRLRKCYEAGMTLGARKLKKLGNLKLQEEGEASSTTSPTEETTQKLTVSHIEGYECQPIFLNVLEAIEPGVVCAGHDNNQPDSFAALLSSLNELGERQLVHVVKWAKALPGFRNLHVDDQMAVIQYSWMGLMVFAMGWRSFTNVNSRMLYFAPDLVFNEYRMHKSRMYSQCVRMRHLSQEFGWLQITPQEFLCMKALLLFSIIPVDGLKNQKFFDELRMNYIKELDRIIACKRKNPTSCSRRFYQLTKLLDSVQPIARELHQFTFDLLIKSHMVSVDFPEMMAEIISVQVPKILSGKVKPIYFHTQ
Source text: as §1

[4] = target: T3, PXR (pregnane X receptor) (Homo sapiens, UniProt O75469); experiment: as above; type: cell-based; settings: Figure 6, C = 10 µM; even at the highest concentrations
T3 sequence (O75469 1-434): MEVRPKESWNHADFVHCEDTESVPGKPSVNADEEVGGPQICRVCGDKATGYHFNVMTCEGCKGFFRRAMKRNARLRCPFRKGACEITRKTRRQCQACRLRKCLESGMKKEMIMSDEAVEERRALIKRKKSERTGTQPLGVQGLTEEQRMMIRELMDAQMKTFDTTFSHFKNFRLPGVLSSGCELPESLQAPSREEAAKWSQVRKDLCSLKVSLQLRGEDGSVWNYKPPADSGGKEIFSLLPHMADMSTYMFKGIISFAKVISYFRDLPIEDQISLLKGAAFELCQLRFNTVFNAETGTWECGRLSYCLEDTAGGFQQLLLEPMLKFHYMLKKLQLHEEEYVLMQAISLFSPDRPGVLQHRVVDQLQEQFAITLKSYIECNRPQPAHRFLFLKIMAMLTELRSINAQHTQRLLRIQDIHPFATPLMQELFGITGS
Source text: as §1

[5] = UV-Vis absorption spectrum (anti-UVA and blue light properties); type: physicochemical; design: λmax: unit not given here
Source text: Un spectre UV-Vis a été réalisé dans l'éthanol à 10^-5 mol/L pour les composés 1 à 7, qui sont des dérivés furaniques de l'acide de Medrum. L'Avobenzone, une molécule très largement utilisée comme filtre UVA dans les crèmes solaires, a été utilisée en tant que référence.
Cette méthodologie a été employée pour évaluer les propriétés anti-UV des composés 8 à 11, qui sont des dérivés phénoliques de l'acide de Medrum, des composés 12 à 15 qui sont des dérivés pyrroliques de l'acide de Meldrum, des composés 16 à 18 qui sont des dérivés vinylphénol de l'acide de Meldrum, le composé 19 qui est un dérivé vinylfurane de l'acide de Meldrum.

[6] = target: T1, ERα (récepteur œstrogène alpha); experiment: Endocrine system: receptor activity in presence of compound and reference molecule (antagonist effect); type: cell-based; settings: Figure 7; with reference molecule; even at the highest concentrations
Source text: as §1

[7] = target: T2, AR (récepteur des androgènes); experiment: as above; type: cell-based; settings: Figure 8; with reference molecule; even at the highest concentrations
Source text: as §1

[8] = target: T3, PXR (pregnane X receptor); experiment: as above; type: cell-based; settings: Figure 9; with reference molecule; even at the highest concentrations
Source text: as §1

[9] = Antioxidant properties (IC50 compared with BHA and BHT); type: biochemical
Source text: Les propriétés anti-oxydantes des composés 8 à 11 ont été évaluées par comparaison de leur IC50 avec celles de deux molécules de référence que sont la BHA et le BHT. Ces deux molécules sont très largement utilisées dans les formulations cosmétiques bien qu'elles soient controversées pour leur effet potentiellement cancérigène.

[10] = Tableau 1, UV exposure λ 300 nm, P 8.32 W/m^2, one hour
[11] = Tableau 2, same test as for compounds 1 to 7 (λ 300 nm, P 8.32 W/m^2, one hour)
[12] = read-out: IC50 (nmol); antioxidant properties

## CC1(C)OC(=O)C(=Cc2ccc(CO)o2)C(=O)O1 [compound 4, 5-[[5-(Hydroxymethyl)-2-furanyl]methylene]-2,2-dimethyl-1,3-dioxane-4,6-dione]
[1]; [10]
  Perte d'activité (%): < 5%
[1]; Tableau 1, UV exposure λ 300 nm, P 8.32 W/m^2, one hour, listed as Composé (4)
  Perte d'activité (%): 3,4%
[1]; Tableau 1
  A (t=0 min): 0,28814
[2]
  effet agoniste (activité du récepteur ERα): n'induisent pas une activité anormale des récepteurs
[3]
  effet agoniste (activité du récepteur AR): n'induisent pas une activité anormale des récepteurs
[4]
  effet agoniste (activité du récepteur PXR): n'induisent pas une activité anormale des récepteurs
[5]; Tableau 1
  λmax: 374
[6]
  effet antagoniste sur le récepteur ERα: n'empêchent pas l'activité des récepteurs envers les molécules de référence
[7]
  effet antagoniste sur le récepteur AR: n'empêchent pas l'activité des récepteurs envers les molécules de référence
[8]
  effet antagoniste sur le récepteur PXR: n'empêchent pas l'activité des récepteurs envers les molécules de référence

## CC1(C)OC(=O)C(=Cc2ccc(O)cc2)C(=O)O1 [Composé 10, 5-(4-Hydroxybenzylidene)-2,2-dimethyl-1,3-dioxane-4,6-dione]
[1]; Tableau 2
  A (t=0 min): 0,29431
[1]; [11]
  Perte d'activité (%): 3,47%
[5]; Tableau 2
  λmax: 374
[9]; antioxidant properties
  IC50 (nmol): Pas d'effet

## CC1(C)OC(=O)C(=Cc2cc3ccccc3o2)C(=O)O1 [compound 5, 5-(2-benzofuranylmethylene)-2,2-dimethyl-1,3-dioxane-4,6-dione]
[1]; [10]
  Perte d'activité (%): 28,7%
[1]; Tableau 1
  A (t=0 min): 0,32310
[5]; Tableau 1
  λmax: 386

## CC1(C)OC(=O)C(=CC=Cc2ccco2)C(=O)O1 [compound 19, 5-[3-(2-furanyl)-2-propen-1-ylidene]-2,2-dimethyl-1,3-Dioxane-4,6-dione]
[5]; in ethanol at 10^-5 mol/L, Figure 2
  absorption UVA et lumière bleue (spectre UV-Vis): comparables à ceux obtenus avec les composés 1 à 7

## Cc1cc(C(C)(C)C)c(O)c(C(C)(C)C)c1 [BHT, reference compound]
[9]; [12]
  IC50: 13.1 nmol

## CCc1ccc(C=C2C(=O)OC(C)(C)OC2=O)o1 [compound 3, 5-[(5-Ethyl-2-furanyl)methylene]-2,2-dimethyl-1,3-dioxane-4,6-dione]
[1]; [10]
  Perte d'activité (%): < 5%
[1]; Tableau 1, UV exposure λ 300 nm, P 8.32 W/m^2, one hour, listed as Composé (3)
  Perte d'activité (%): 5,1%
[1]; Tableau 1
  A (t=0 min): 0,31307
[5]; Tableau 1
  λmax: 374

## COc1cc(C=C2C(=O)OC(C)(C)OC2=O)cc(OC)c1O
[1]; Tableau 2
  A (t=0 min): 0,24614
[1]; [11]
  Perte d'activité (%): 11,43%
[5]; Tableau 2
  λmax: 405
[9]; antioxidant properties; read-out: IC50 (nmol)
  IC50: 3.58 nM
[9]; result in words
  capacité antioxydante: remarquables

## CC1(C)OC(=O)C(=Cc2ccc(O)c(O)c2)C(=O)O1 [Composé 9]
[1]; Tableau 2
  A (t=0 min): 0,26515
[1]; [11]
  Perte d'activité (%): 6,37%
[5]; Tableau 2
  λmax: 398
[9]; [12]
  IC50: 2.9 nmol
[9]; result in words
  capacité antioxydante: remarquables

## COc1ccc(C(=O)CC(=O)c2ccc(C(C)(C)C)cc2)cc1 [Avobenzone, reference compound]
[1]; [10]
  Perte d'activité (%): 0,6%
[1]; Tableau 1
  A (t=0 min): 0,36735
[5]; Tableau 1
  λmax: 350

## Cc1cc(C=C2C(=O)OC(C)(C)OC2=O)oc1C [compound 2, 5-[(4,5-Dimethyl-2-furanyl)methylene]-2,2-dimethyl-1,3-dioxane-4,6-dione]
[1]; [10]
  Perte d'activité (%): < 5%
[1]; Tableau 1, UV exposure λ 300 nm, P 8.32 W/m^2, one hour, listed as Composé (2)
  Perte d'activité (%): 4,2%
[1]; Tableau 1
  A (t=0 min): 0,37961
[5]; Tableau 1
  λmax: 400

## CC1(C)OC(=O)C(=Cc2ccc(C=C3C(=O)OC(C)(C)OC3=O)o2)C(=O)O1 [compound 7, 5,5'-(2,5-furandiyldimethylidyne)bis-2,2-dimethyl-1,3-dioxane-4,6-dione]
[1]; [10]
  Perte d'activité (%): 12,4%
[1]; Tableau 1
  A (t=0 min): 0,47642
[5]; Tableau 1
  λmax: 406 - 426

## CC(=O)OCc1ccc(C=C2C(=O)OC(C)(C)OC2=O)o1 [compound 6, 5-[[5-((Acetyloxy)methyl)-2-furanyl]methylene]-2,2-dimethyl-1,3-dioxane-4,6-dione]
[1]; [10]
  Perte d'activité (%): 12,0%
[1]; Tableau 1
  A (t=0 min): 0,28728
[5]; Tableau 1
  λmax: 366

## COc1ccc(O)c(C(C)(C)C)c1 [BHA, reference compound]
[9]; [12]
  IC50: 6.51 nmol
